Test results: patent US11413278B2, “Compounds and methods for promoting stress resistance” (priority 2015, dated 2022)
Read-outs that look alike come from different tables or passages of the source.

Legend:
WI-38 cells [1] = assay: Propidium iodide (PI) cell-death imaging upon H2O2 stress; format: cell-based, human; settings: for Assay 7: H2O2-resistant, at 10 uM, validated by propidium iodide (PI) cell-death imaging: w/H2O2, 3 hrs/4 hrs/5 hrs, YES/NO; for cytotoxicity at 10 µM: Homo sapiens, WI-38
human PARP1 = target: T1, human PARP1 (Homo sapiens, UniProt P09874); assay: PARP inhibitor assay (HT Fluorescent Homogeneous PARP Inhibition Assay Kit); format: biochemical; settings: score
T1 construct: purchased Trevigen
T1 sequence (P09874 whole entry): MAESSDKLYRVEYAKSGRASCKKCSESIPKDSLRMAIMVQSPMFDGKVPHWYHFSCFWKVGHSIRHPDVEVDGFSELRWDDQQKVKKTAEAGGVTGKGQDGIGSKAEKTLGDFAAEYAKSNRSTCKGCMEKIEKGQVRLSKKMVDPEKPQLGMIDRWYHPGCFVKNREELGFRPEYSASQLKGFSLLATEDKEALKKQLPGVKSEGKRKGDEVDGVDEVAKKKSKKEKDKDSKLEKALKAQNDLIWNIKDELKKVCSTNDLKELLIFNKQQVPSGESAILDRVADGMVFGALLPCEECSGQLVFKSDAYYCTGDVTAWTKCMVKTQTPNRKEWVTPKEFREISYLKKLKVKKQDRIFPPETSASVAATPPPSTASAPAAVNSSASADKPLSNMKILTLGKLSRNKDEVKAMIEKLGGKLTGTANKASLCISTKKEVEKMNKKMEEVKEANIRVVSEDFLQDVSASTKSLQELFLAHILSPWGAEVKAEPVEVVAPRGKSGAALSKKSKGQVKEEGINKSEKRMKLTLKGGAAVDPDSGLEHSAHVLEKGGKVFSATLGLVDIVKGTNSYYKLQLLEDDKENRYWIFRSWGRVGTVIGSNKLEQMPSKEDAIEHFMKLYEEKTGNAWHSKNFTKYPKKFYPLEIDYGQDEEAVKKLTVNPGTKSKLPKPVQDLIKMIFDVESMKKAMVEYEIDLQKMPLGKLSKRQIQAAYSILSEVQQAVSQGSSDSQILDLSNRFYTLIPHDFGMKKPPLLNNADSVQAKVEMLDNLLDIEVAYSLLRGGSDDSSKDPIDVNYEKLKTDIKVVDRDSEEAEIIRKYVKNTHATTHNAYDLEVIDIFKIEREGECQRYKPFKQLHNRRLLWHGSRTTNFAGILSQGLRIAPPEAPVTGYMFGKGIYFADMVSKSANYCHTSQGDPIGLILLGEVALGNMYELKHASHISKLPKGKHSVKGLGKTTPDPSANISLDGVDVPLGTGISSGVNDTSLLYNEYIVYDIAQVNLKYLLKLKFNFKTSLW
Procedure, shortened: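 Compounds (10 μM final) incubated 30 min, room temperature, dark, with human PARP1, nicotinamide adenine dinucleotide and activated DNA. Fluorescent signal generated by 1 hr cycling with diaphorase and resazurin, then reaction stopped.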

NRF2 = assay: in vitro; format: cell-based, human
LC3A/B puncta = assay: Autophagy induction analysis (LC3A/B puncta immuno-staining); format: cell-based, human
Procedure: Immuno-staining of LC3A/B was performed, following a standard protocol. Briefly, WI-38 cells were treated with small molecules for 24 hrs, and then processed and incubated with primary antibody (Cell Signaling, rabbit anti-LC3A/B, 1:100) overnight at 4° C. Next day, samples were processed and incubated with fluorophore-conjugated secondary antibody and further incubated with DAPI dye. Images were collected on the INCell Analyzer 2000 (Experiment 1: 10× objective; Experiment 2: 20× objective) and analyzed with the Developer Toolbox. For Experiment 2, lysosomal-associated membrane protein 2 (LAMP2) was also counter-stained to identify the LC3A/B puncta that colocalize with lysosome and the data were analyzed by the MetaXpress software (Molecular Devices, version 5.1). The intensity of total (Exp. 1) or LAMP2-colocalized LC3A/B puncta (Exp. 2) was normalized the total numbers nuclei in the fields.
These assays were performed, following the same procedures to analyze DNA-damage markers. WI-38 cells were incubated with small molecules for 24 hrs, and then processed and incubated with primary antibody (rabbit anti-LC3A/B, 1:100) overnight at 4 C. The next day, samples were processed and incubated with fluorophore-conjugated secondary antibody and further incubated with DAPI dye. Images were collected on an INCell Analyzer 2000 and analyzed with the Developer software. Total LC3A/B puncta intensity was normalized the total numbers of DAPI-positive nuclei.

[2] = Summary score for characterization of 38 core set hits; settings: for D = Triple resistant: 2-point score, multiplex resistance (cadmium, MMS, H2O2); for C = H2O2- & Cd-resistant: score, resistance to both H2O2 and cadmium
Procedure: 38 “core set” small molecules are listed and are assigned a score, based on the result for each individual characterization. From our small molecule screen for H2O2-resistance, we isolated 61 top hits. […] Specifically, a 2-point score was assigned to the most well-known and prominent longevity-related phenotypes, such as multiplex resistance, activation of FOXO3 and/or NRF2, and down-regulation of mTOR. Small molecules were also analyzed for their ability to extend C. elegans' lifespan in 4 to 6 independent trials, and the lifespan score scale is from 0 to 2: 0 for no obvious effects, 1 for lifespan extension observed in 2 trials, 2 for observed in more than 2 trials. Certain molecules appeared to have DNA-damaging effects and/or potential cell-toxicity in cultured human cells, and they receive a negative point.

WI-38 cells [3] = settings: for No H2O2 stress treatment, at 10 uM (fold change): normalized ATP measurement; for Assay 1: H2O2-resistant: YES/NO, if NO, possibly due to repeated freezing/thawing of stocks
[4] = H2O2 3 hrs, 10 uM, n = 6, negative control 5.44% ± 0.79%, read-out: Percentage of propidium iodide-positive dead cells (under H2O2 stress treatment), 3 hrs
[5] = pre-treatment at 10 uM, 3.5 hours of H2O2, DMSO control 27.4% ± 6.5%, */**/*** = reduced by one/two/three standard deviations, read-out: Percentage of propidium iodide-positive dead cells (under H2O2 stress treatment), at 10 uM
[6] = WI-38 cells, 10 μM, (*) = compromised ability to protect cells from H2O2, could be due to stability issue
[7] = asterisks indicate the loss of the ability to protect cells from H2O2 over time
[8] = derived from dose response curves, 0.6-20 uM, H2O2-resistance of WI-38 cells
[9] = read-out: Est. ED50, dose response 0.6-20 μM, H2O2-resistance
[10] = H2O2 4 hrs, 10 uM, n = 6, negative control 16.81% ± 1.42%, read-out: Percentage of propidium iodide-positive dead cells (under H2O2 stress treatment), 4 hrs

Row | Structure (SMILES) | Assay 7: H2O2-resistant, at 10 uM, validated by propidium iodide (PI) cell-death imaging (WI-38 cells [1]; 10 uM) | cytotoxicity at 10 µM (WI-38 cells [1]; [4]) [%] | cytotoxicity at 10 µM (WI-38 cells [1]; [5]) [%] | L = PARP inhibition (human PARP1) | J = NRF2-dependency for H2O2-resistance (NRF2; score) | J = NRF2-dependency for H2O2-resistance (NRF2; summary score) | H = Potential Autophagy Induction (LC3A/B puncta; score) | H = Potential Autophagy Induction (LC3A/B puncta; summary score) | D = Triple resistant [2] | C = H2O2- & Cd-resistant [2] | S = Sum of Negative scores ([2]; sum of columns Q and R) | H2O2-resistant (WI-38 cells [3]; [6]) | No H2O2 stress treatment, at 10 uM (fold change) (WI-38 cells [3]; WI-38 cells) | Assay 1: H2O2-resistant (WI-38 cells [3]) | H2O2-resistant (WI-38 cells [3]; [7]) | EC50 (WI-38 cells [3]; [8]) [µM] | EC50 (WI-38 cells [3]; [9]) [µM] | cytotoxicity at 10 µM (WI-38 cells [1]; [10]) [%] | S = Sum of Negative scores ([2]; human) | further results
1 | COc1ccc(C(=O)/C=C/c2ccc(F)cc2)c(OC)c1 [Gr-4A] | YES | 1.87 | 1.9 | 0 | 0 | 0 | 0 | 0 | 0 | 1 | 0 | YES | 1.08 | YES | YES | 9.1 | 4.97 |  |  | 
2 | COc1ccc(C(=O)/C=C/c2ccccc2Br)c(OC)c1 [Gr-4B] | YES | 3.31 | 3.4 | 0 | 0 | 0 | 0 | 0 | 0 | 1 | 0 | YES | 1.18 | YES | YES | 8.9 | 5.33 |  |  | 
3 | COc1ccc(C(=O)/C=C/c2cccc(Cl)c2)c(OC)c1 [Gr-4C] | YES | 4.02 | 17.4 | 0 | 0 | 0 | 0 | 0 | 0 | 0 | 0 | YES | 1.08 | YES | YES | 8.4 | 6.45 | 6.21 |  | 
4 | O=C(/C(=C/c1ccc(Cl)cc1)c1nc2ccccc2[nH]1)c1ccccc1 [Gr-4D] | YES | 1.58 | 19.8 | 0 | 0 | 0 | 0 | 0 | 0 | 1 |  | YES | 1.11 | YES | YES | 10.6 | 8.9 | 7.44 | 0 | NRF2-dependency for H2O2-resistance, at 10 uM (experiment 3) - with & without H2O2 (NRF2; 10 uM, experiment 3, with & without H2O2): Partial; NRF2-dependency for H2O2-resistance (experiment 3) (NRF2; 10 uM, with & without H2O2, NRF2 knockdown in WI-38 cells, YES = resistance reduced by at least 50%, partial = 25% to 50%): Partial; NRF2-dependency of H2O2-resistance (NRF2 siRNA knockdown) (NRF2; at least 2 of 3 independent experiments): partially dependent on NRF2
5 | CCc1ccc(Oc2nc3ccccn3c(=O)c2/C=C(\C#N)C(=O)NC2CCCCC2)cc1 [Gr-5A] | YES | 1.64 | 3.7 | 0 | 0 | 0 | 0 | 0 | 0 | 1 |  | YES | 1.14 |  | YES |  | 10.2 | 8.97 | 0 | 
6 | CCc1ccc(Oc2nc3ccccn3c(=O)c2/C=C(\C#N)C(=O)NCc2ccco2)cc1 [Gr-5B] | YES | 1.18 | 6.1 | 0 | 0 | 0 | 0 | 0 | 0 | 0 |  | YES | 1.19 |  | YES | 8.7 | 14.3 | 6.19 | 0 | 
7 | CNC(=O)/C(C#N)=C/c1c(Oc2ccc(C(C)(C)C)cc2)nc2ccccn2c1=O [Gr-5D] | YES | 3.28 | 6.4 | 0 | 0 | 0 | 0 | 0 | 0 | 0 |  | YES (*) | 1.14 | YES | YES (*) |  | 18.7 |  | 0 | 
